{
  "source": "patent US20060083700A1",
  "about": "“Use of a novel phytonutrient rich bioactive concentrate (Ri-ActiveTM) for the prevention and treatment of cardiovascular disease, diabetes and other health disorders” (NaturRi LLC, priority 2004, published 2006)",
  "origin": "cited, not measured here",
  "test_system": "hypercholesterolemic subjects",
  "conditions": "28 subjects, phases of 35 days",
  "data": [
    {"smiles": "CC[C@H](C)C(=O)O[C@H]1C[C@@H](C)C=C2C=C[C@H](C)[C@H](CC[C@@H]3C[C@@H](O)CC(=O)O3)[C@H]21", "note": "[lovastatin]", "values": [
      {"measurement": "reduction of LDL-C", "result": 15, "unit": "%"},
      {"measurement": "reduction of serum total cholesterol", "result": 13, "unit": "%"}
    ]}
  ]
}
